Experiments:
bone marrow (BM) blasts = assay: Clinical study of change in bone marrow blasts, BLC2 inhibitor naive vs prior-exposed patients; type: in vivo, human patients
Description: FIG. 1A is a graph showing the results of a clinical study for the efficacy of emavusertib (Compound 1) administration on reducing bone marrow (BM) blasts in patients with blood cancer. Blasts are immature white blood cells that are usually found in small numbers in healthy bone marrow. High levels of blasts circulating in the blood are associated with cancer. This clinical study measured the change in blast levels before and after receiving Compound 1 treatment. Here, the relative change in blast levels before and after Compound 1 is compared between patients who had previously received BLC2 inhibitors in prior treatment and patients who were naïve to BLC2 inhibitors. The comparison groups each contain 22 high risk myelodysplastic syndrome (hrMDS) patients and 10 acute myeloid leukemia (AML) patients.
FIG. 1B is a graph showing baseline and best post-treatment blast levels of the subjects in FIG. 1A. […] Each patient is shaded according to their diagnosis, with high-risk myelodysplastic syndrome (MDS) patients tending to have lower blast levels than acute myeloid leukemia (AML) patients.
To support the development of effective treatment regimens with Compound 1, a study was conducted to monitor bone marrow (BM) samples obtained from AML and high risk MDS patients with different prior histories of treatment.
(§1) • Pharmacokinetic parameters of Compound 1 measured by Cmax, Cmin, Tmax, AUC0-24, AUC0-inf, and T1/2 (time frame 24 months) • Clinical response in AML or hrMDS assessed as follows: • AML: • Proportion of patients who reach CR+CRh • Proportion of patients who reach CRi, or CR or CRh • hrMDS: overall response rate of CR+PR+mCR • Transfusion independence
This is a Phase 1, open-label dose escalation and cohort expansion study of Compound 1 as a monotherapy in patients with AML or MDS and in combination with AZA in treatment-naïve, adult patients with AML or hrMDS, after first line therapy.

AML and high-risk MDS = assay: Ongoing Phase 1 study in relapsed/refractory AML and high-risk MDS; type: in vivo, human patients; conditions: patients with relapsed/refractory AML and high-risk MDS
Description: To support the development of effective treatment regimens with Compound 1, a study was conducted to monitor bone marrow (BM) samples obtained from AML and high risk MDS patients with different prior histories of treatment. […]
• MTD (defined as the highest dose at which there is <33% dose-limiting toxicity rate in the first cycle of treatment in a minimum of 6 patients [time frame: 28 days]) • RP2D (determined by the Sponsor in consultation with the CSC, considering all aspects of safety, tolerability, biologic activity, pharmacokinetic and preliminary efficacy in the trial population [time frame: 24 months]) • Safety measured by adverse events, ECGs, chemistry and hematology laboratory values, vital signs, and physical examinations […]
as §1, with “independence […]” for “independence”

[1] = Study Compound 1-101 (safety, exposure, activity at 200 mg BID); type: in vivo
Description: Three patients with AML or MDS will be enrolled at the designated dose. If none of the first 3 patients experience a dose-limiting toxicity during the first cycle, patients may be enrolled into the next higher dose level. If 1 patient out of the first 3 experiences a dose-limiting toxicity, the dose level may be expanded with an additional 3 patients.

Cc1cc(-c2nc(C(=O)Nc3cc4oc(N5CCOCC5)nc4nc3N3CC[C@@H](O)C3)co2)ccn1 [Compound 1]
rate of response to Compound 1, as evidenced by reduced BM blast counts (bone marrow (BM) blasts; AML and high risk MDS, no history of BLC2 inhibitor treatment vs prior exposure): higher rate of response to Compound 1, as evidenced by reduced BM blast counts in hematology, compared to patients who had prior exposure to a BLC2 inhibitor | decrease in bone marrow blast counts from baseline to best post-baseline (bone marrow (BM) blasts; no prior vs prior BLC2 inhibitor exposure, hrMDS and AML patients, FIG. 1B): significantly higher decreases in bone marrow blast counts from baseline to best post-baseline compared to those subjects with prior BLC2 inhibitor exposure | relative change in bone marrow blast levels before and after Compound 1 (bone marrow (BM) blasts; patients naive to BLC2 inhibitors (e.g., venetoclax) vs previously exposed, comparison groups each 22 hrMDS and 10 AML, FIG. 1A): significant reduction in blasts compared to those who had been previously exposed to BLC2 inhibitors | clinical activity (AML and high-risk MDS): demonstrated clinical activity | biologic activity and clinical efficacy [1]: demonstrating signs of biologic activity and clinical efficacy | drug exposure [1]: capable of achieving relevant levels of drug exposure | safety of starting dose [1]: safe
